Experiment: xn = mol fraction of the nth substance listed
Settings: 101 kPa, Liquid; for electrical conductivity: Conductivity Meter Jenco 3107; for viscosity: Cone and plate viscometry; for mass density: Vibrating tube method

CC1COC(=O)O1 (centres undefined) [4-methyl-1,3-dioxolan-2-one] + CCCC[n+]1ccn(C)c1.O=S(=O)([N-]S(=O)(=O)C(F)(F)F)C(F)(F)F
Settings | electrical conductivity [S/m] | mass density [kg/m3] | viscosity [mPa·s]
293.15 K, x2 = 0 | – | – | 2.86
293.15 K, x2 = 0.0146 | – | 1216.01 | –
293.15 K, x2 = 0.0296 | – | 1226.83 | –
293.15 K, x2 = 0.0453 | – | 1237.53 | –
293.15 K, x2 = 0.0502 | 0.792 | – | –
293.15 K, x2 = 0.0616 | – | 1247.91 | –
293.15 K, x2 = 0.0732 | – | 1254.92 | –
293.15 K, x2 = 0.0997 | – | 1269.69 | –
293.15 K, x2 = 0.1 | – | – | 4.74
293.15 K, x2 = 0.1004 | 0.92 | – | –
293.15 K, x2 = 0.2001 | 1.08 | – | –
293.15 K, x2 = 0.2002 | – | – | 7.21
293.15 K, x2 = 0.2004 | – | 1314.48 | –
293.15 K, x2 = 0.3002 | 0.938 | – | –
293.15 K, x2 = 0.3007 | – | – | 10.74
293.15 K, x2 = 0.3081 | – | 1348.61 | –
293.15 K, x2 = 0.3998 | – | – | 14.73
293.15 K, x2 = 0.4004 | – | 1370.63 | –
293.15 K, x2 = 0.4005 | 0.814 | – | –
293.15 K, x2 = 0.5004 | – | – | 20.17
293.15 K, x2 = 0.5007 | 0.752 | – | –
293.15 K, x2 = 0.5021 | – | 1389.4 | –
293.15 K, x2 = 0.5839 | – | 1401.58 | –
293.15 K, x2 = 0.6002 | – | – | 26.37
293.15 K, x2 = 0.6003 | 0.669 | – | –
293.15 K, x2 = 0.6902 | – | 1414.42 | –
293.15 K, x2 = 0.6979 | – | – | 33.56
293.15 K, x2 = 0.6989 | 0.578 | – | –
293.15 K, x2 = 0.7989 | – | 1424.99 | –
293.15 K, x2 = 0.8001 | 0.497 | – | –
293.15 K, x2 = 0.8015 | – | – | 42.09
293.15 K, x2 = 0.8959 | 0.422 | – | 50.34
293.15 K, x2 = 0.898 | – | 1432.81 | –
298.15 K, x2 = 0 | – | – | 2.65
298.15 K, x2 = 0.0146 | – | 1210.26 | –
298.15 K, x2 = 0.0296 | – | 1221.14 | –
298.15 K, x2 = 0.0453 | – | 1231.8 | –
298.15 K, x2 = 0.0502 | 0.899 | – | –
298.15 K, x2 = 0.0616 | – | 1242.22 | –
298.15 K, x2 = 0.0732 | – | 1249.22 | –
298.15 K, x2 = 0.0997 | – | 1264.08 | –
298.15 K, x2 = 0.1 | – | – | 4.29
298.15 K, x2 = 0.1004 | 1.02 | – | –
298.15 K, x2 = 0.2001 | 1.21 | – | –
298.15 K, x2 = 0.2002 | – | – | 6.43
298.15 K, x2 = 0.2004 | – | 1308.99 | –
298.15 K, x2 = 0.3002 | 1.06 | – | –
298.15 K, x2 = 0.3007 | – | – | 9.27
298.15 K, x2 = 0.3081 | – | 1343.32 | –
298.15 K, x2 = 0.3998 | – | – | 12.6
298.15 K, x2 = 0.4004 | – | 1365.43 | –
298.15 K, x2 = 0.4005 | 0.924 | – | –
298.15 K, x2 = 0.5004 | – | – | 17.01
298.15 K, x2 = 0.5007 | 0.855 | – | –
298.15 K, x2 = 0.5021 | – | 1384.34 | –
298.15 K, x2 = 0.5839 | – | 1396.54 | –
298.15 K, x2 = 0.6002 | – | – | 21.71
298.15 K, x2 = 0.6003 | 0.761 | – | –
298.15 K, x2 = 0.6902 | – | 1409.46 | –
298.15 K, x2 = 0.6979 | – | – | 27.64
298.15 K, x2 = 0.6989 | 0.667 | – | –
298.15 K, x2 = 0.7989 | – | 1420.01 | –
298.15 K, x2 = 0.8001 | 0.581 | – | –
298.15 K, x2 = 0.8015 | – | – | 34.76
298.15 K, x2 = 0.8959 | 0.49 | – | 40.95
298.15 K, x2 = 0.898 | – | 1427.78 | –
303.15 K, x2 = 0 | – | – | 2.44
303.15 K, x2 = 0.0146 | – | 1205.11 | –
303.15 K, x2 = 0.0296 | – | 1216.01 | –
303.15 K, x2 = 0.0453 | – | 1226.7 | –
303.15 K, x2 = 0.0502 | 0.963 | – | –
303.15 K, x2 = 0.0616 | – | 1237.2 | –
303.15 K, x2 = 0.0732 | – | 1244.2 | –
303.15 K, x2 = 0.0997 | – | 1259.1 | –
303.15 K, x2 = 0.1 | – | – | 3.84
303.15 K, x2 = 0.1004 | 1.16 | – | –
303.15 K, x2 = 0.2001 | 1.35 | – | –
303.15 K, x2 = 0.2002 | – | – | 5.81
303.15 K, x2 = 0.2004 | – | 1303.96 | –
303.15 K, x2 = 0.3002 | 1.21 | – | –
303.15 K, x2 = 0.3007 | – | – | 8.07
303.15 K, x2 = 0.3081 | – | 1338.4 | –
303.15 K, x2 = 0.3998 | – | – | 10.8
303.15 K, x2 = 0.4004 | – | 1360.5 | –
303.15 K, x2 = 0.4005 | 1.07 | – | –
303.15 K, x2 = 0.5004 | – | – | 14.41
303.15 K, x2 = 0.5007 | 0.963 | – | –
303.15 K, x2 = 0.5021 | – | 1379.5 | –
303.15 K, x2 = 0.5839 | – | 1391.7 | –
303.15 K, x2 = 0.6002 | – | – | 18.4
303.15 K, x2 = 0.6003 | 0.86 | – | –
303.15 K, x2 = 0.6902 | – | 1404.6 | –
303.15 K, x2 = 0.6979 | – | – | 22.9
303.15 K, x2 = 0.6989 | 0.764 | – | –
303.15 K, x2 = 0.7989 | – | 1415.1 | –
303.15 K, x2 = 0.8001 | 0.665 | – | –
303.15 K, x2 = 0.8015 | – | – | 28.81
303.15 K, x2 = 0.8959 | 0.563 | – | 33.59
303.15 K, x2 = 0.898 | – | 1422.88 | –
308.15 K, x2 = 0 | – | – | 2.23
308.15 K, x2 = 0.0146 | – | 1199.79 | –
308.15 K, x2 = 0.0296 | – | 1210.69 | –
308.15 K, x2 = 0.0453 | – | 1221.41 | –
308.15 K, x2 = 0.0502 | 1.05 | – | –
308.15 K, x2 = 0.0616 | – | 1231.88 | –
308.15 K, x2 = 0.0732 | – | 1238.89 | –
308.15 K, x2 = 0.0997 | – | 1253.78 | –
308.15 K, x2 = 0.1 | – | – | 3.51
308.15 K, x2 = 0.1004 | 1.3 | – | –
308.15 K, x2 = 0.2001 | 1.51 | – | –
308.15 K, x2 = 0.2002 | – | – | 5.1
308.15 K, x2 = 0.2004 | – | 1298.88 | –
308.15 K, x2 = 0.3002 | 1.36 | – | –
308.15 K, x2 = 0.3007 | – | – | 7.11
308.15 K, x2 = 0.3081 | – | 1333.39 | –
308.15 K, x2 = 0.3998 | – | – | 9.42
308.15 K, x2 = 0.4004 | – | 1355.48 | –
308.15 K, x2 = 0.4005 | 1.22 | – | –
308.15 K, x2 = 0.5004 | – | – | 12.36
308.15 K, x2 = 0.5007 | 1.1 | – | –
308.15 K, x2 = 0.5021 | – | 1374.5 | –
308.15 K, x2 = 0.5839 | – | 1386.81 | –
308.15 K, x2 = 0.6002 | – | – | 15.75
308.15 K, x2 = 0.6003 | 0.972 | – | –
308.15 K, x2 = 0.6902 | – | 1399.67 | –
308.15 K, x2 = 0.6979 | – | – | 19.44
308.15 K, x2 = 0.6989 | 0.859 | – | –
308.15 K, x2 = 0.8001 | 0.755 | – | –
308.15 K, x2 = 0.8015 | – | – | 24.1
308.15 K, x2 = 0.8959 | 0.642 | – | 27.95

From the NIST ThermoML archive (doi:10.1016/j.jct.2013.08.034)
